{"source": "patent US20230233500A1", "about": "“Gasdermin D (GSDMD) Succination for the Treatment of Inflammatory Disease” (University of Massachusetts, priority 2020, published 2023)", "key": {"BMDMs": {"test_system": "BMDMs", "assay": "Pyroptosis in BMDMs after transfected LPS, Salmonella infection or poly (dA:dT)", "type": "cell-based, mouse", "description": "FIGS. 5A-G. Fumarate inhibits pyroptosis. (A) SYTOX Orange and Hoechst stained WT BMDMs treated with LPS for 2 hours, DMSO (vehicle) or fumarate (25 μM) for 1 hour and nigericin for 6 hours. (B) LDH assay conditioned medium from WT BMDMs treated with LPS for 3 hours, nigericin for the indicated times and DMSO (vehicle) or fumarate (25 μM) 15 minutes after each nigericin (10 μM) timepoint. (C) Immunoblot analysis of GSDMD in BMDMs treated as in […]. (D-E) LDH (D) and immunoblot analysis of GSDMD and β-actin in lysates (E) from WT BMDMs treated with DMSO (vehicle) or fumarate ([…]) for 1 hour followed by salmonella infection (MOI 10) for 6 hours. (F-G) LDH (F) and immunoblot analysis of GSDMD and β-actin in lysates (G) from WT BMDMs primed with LPS for 2 hours, followed by treatment with fumarate (25 μM) transfection with Poly (dA:dT) (1 μg). A, C, E, G are representative of 3 independent experiments. B, D, F are pooled data from 3 independent experiments. ***, P<0.001, ****, P<0.00001 (Two-way ANOVA). Error bars show means±SEM.\nCells were plated, treated and incubated in phenol red free medium. Following treatment medium was collected and assessed for LDH release using the CytoTox96 non-radioactive cytotoxicity assay (Promega) as per manufacturer's instructions. Kinetic cell death assays were performed using SytoxOrange and the Biotek Cytation5.\nCells were primed with LPS (100 ng/ml) from Escherichia coli serotype EH100 (ra) TLRgrade for 3 h followed by stimulation with the inflammasome activator Nigericin ([…]) for 1 h. For noncanonical inflammasome activation, cells were primed with […] Pam3CSK4 (Invivogen) for 2 h, followed by transfection of LPS (2 μg/ml) using Lipofectamine 2000 for 16 hours."}, "recombinant GSDMD": {"molecular_target": "T1, recombinant GSDMD (Homo sapiens, UniProt P57764)", "T1 sequence (P57764 1-484)": "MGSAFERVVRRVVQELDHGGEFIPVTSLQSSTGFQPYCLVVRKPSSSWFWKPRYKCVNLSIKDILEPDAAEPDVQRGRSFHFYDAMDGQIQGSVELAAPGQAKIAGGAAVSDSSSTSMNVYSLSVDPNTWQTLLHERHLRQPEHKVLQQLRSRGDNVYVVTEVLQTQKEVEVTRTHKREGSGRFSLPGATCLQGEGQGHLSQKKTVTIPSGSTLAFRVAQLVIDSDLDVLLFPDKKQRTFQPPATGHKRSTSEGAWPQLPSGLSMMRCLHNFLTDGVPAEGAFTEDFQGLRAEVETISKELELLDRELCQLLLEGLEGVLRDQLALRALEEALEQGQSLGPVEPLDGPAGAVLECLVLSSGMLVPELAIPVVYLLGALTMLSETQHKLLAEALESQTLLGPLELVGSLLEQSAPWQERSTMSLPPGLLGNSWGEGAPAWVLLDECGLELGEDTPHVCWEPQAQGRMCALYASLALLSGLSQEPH", "assay": "MMF-Yne labelling of recombinant GSDMD competed by fumarate, intact MS", "type": "binding", "details": "1 μM GSDMD", "description": "FIGS. 11A-E. Fumarate binds to GSDMD. (A) Immunoblot analysis of MMF-Yne bound proteins using a streptavidin-IR dye. (B) Representative MS spectra of GSDMD identified in streptavidin pulldowns subjected to mass spec. (C-D) Immunoblot analysis (C) and densitometry analysis (D) of streptavidin-IR dye detecting MMF-Yne labelled recombinant GSDMD incubated with the indicated concentrations of fumarate and copper clicked using a biotin-azide. (E) Intact MS analysis of recombinant GSDMD (1 μM) incubated in a succination reaction with DMSO (vehicle) or fumarate (25 μM) for 2 hours. A-E Representative images from 2 independent experiments..\nIntact mass analysis of GSDMD protein was carried out using an Acquity UPLC (Waters Corporation, Milford, Mass.) coupled to a Synapt G2-Si (Waters) quadrupole time-of-flight mass spectrometer fitted with an electrospray ionization source. Liquid chromatography was carried out with a 3.0×50 mm(4 μm) MAbPac RP column (Thermo Scientific, Waltham, Mass.) using mobile phase A and B containing 0.1% (v/v) formic acid in water, and 0.1% (v/v) formic acid in acetonitrile, respectively. A total of 0.6 μg sample was injected and the protein eluted using a linear gradient of 10 to 70% B over 7.0 minutes at a flow rate of 0.3 ml/min. […]"}, "GSDMD": {"molecular_target": "T2, GSDMD (Mus musculus, UniProt Q9D8T2)", "T2 construct": "We also immunoprecipitated GSDMD from fumarate treated BMDMs; endogenous in cells; host or cells: primary mouse BMDMs", "T2 sequence (Q9D8T2 1-487)": "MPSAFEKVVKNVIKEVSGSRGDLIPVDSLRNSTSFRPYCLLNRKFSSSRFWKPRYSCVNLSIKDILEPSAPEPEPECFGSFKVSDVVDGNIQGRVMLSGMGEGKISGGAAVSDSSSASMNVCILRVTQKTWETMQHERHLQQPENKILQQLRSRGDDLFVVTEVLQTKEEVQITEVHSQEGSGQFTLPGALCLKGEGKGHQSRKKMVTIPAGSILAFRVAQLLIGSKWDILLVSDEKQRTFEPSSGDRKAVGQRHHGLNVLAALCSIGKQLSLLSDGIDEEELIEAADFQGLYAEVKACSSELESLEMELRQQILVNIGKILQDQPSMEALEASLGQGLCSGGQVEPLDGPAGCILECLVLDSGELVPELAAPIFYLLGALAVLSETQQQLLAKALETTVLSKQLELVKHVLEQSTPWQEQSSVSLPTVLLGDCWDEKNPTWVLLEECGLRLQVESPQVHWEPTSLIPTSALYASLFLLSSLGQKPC", "assay": "Tandem MS of GSDMD immunoprecipitated from treated BMDMs", "type": "cell-based", "details": "GSDMD immunoprecipitated from fumarate treated BMDMs"}}, "note": "Entries after “also recorded” stand apart in the source; their conditions may differ. Counter-ions that a name gives are not always drawn."}
{"compound": "COC(=O)/C=C/C(=O)OC", "note": "[Fumarate, Dimethyl fumarate]", "values": [{"measurement": "inhibitory effect on pyroptosis after poly (dA:dT)", "setting": "BMDMs; LPS primed 2 hours, fumarate 25 μM, LDH and GSDMD immunoblot", "result": "inhibitory effect"}, {"measurement": "inhibitory effect on pyroptosis after Salmonella infection", "setting": "BMDMs; fumarate 25 μM 1 hour, MOI 10, 6 hours, LDH and GSDMD immunoblot", "result": "inhibitory effect"}, {"measurement": "inhibitory effect on pyroptosis after transfected LPS", "setting": "BMDMs; noncanonical inflammasome", "result": "inhibitory effect"}, {"measurement": "concentration at which maximum occupancy of GSDMD was achieved", "setting": "recombinant GSDMD", "result": 25, "unit": "µM"}, {"measurement": "2-monomethyl and 2-dimethyl succination sites of GSDMD in cells", "setting": "GSDMD", "result": "Cys^192; also recorded: Cys^57; also recorded: Cys^77"}]}
